In article PMC11089505, “Structural Elucidation and Antiviral Activity of Covalent Cathepsin L Inhibitors” (Journal of Medicinal Chemistry, 2024):
Several values for one entry are separate records, joined by “and”; a condition that tells them apart may be missing. Identical values can stand only once. Like-named read-outs stand apart in the source and are kept apart here. Peptide text beside a SMILES is read from it. * marks the point of attachment. Cbz = O=C(OCc1ccccc1)*

How the values were obtained:
CatL [1] = target: T1, CatL (Homo sapiens, UniProt P07711, T223A); test: NanoDSF, thermal stability of CatL; format: binding
T1 construct: made in house; host or cells: Komagataella pastoris strain GS115

Vero E6 cells = test: Cell viability assay (CellTiter-Blue); conditions: Vero E6 cells
CatL [2] = conditions: Table S1, SI reference list; cited from earlier work
CatL [3] = target: T1, CatL; test: CatL inhibition assay (Ki), substrate Z-RR-AMC; format: biochemical
Description: Experiments were performed in a solution of 50 mM sodium acetate, pH 4.0, 50 mM NaCl, 0.1% PEG 6000, and 5 mM DTT. Distinct assays with epoxide inhibitors at pH 6.0 were performed in 50 mM sodium phosphate buffer, 50 mM NaCl, 5 mM DTT, 0.1% PEG 6000, adjusted to pH 6.0.
M1000 pro plate reader (Tecan), the fluorescent peptide substrate Z-RR-AMC, and excitation and emission wavelengths of 370 and 460 nm, respectively.
At first, the inhibitor concentration span was optimized for each inhibitor and the assay buffer. For this initial screening, CatL (5 nM) was mixed with different concentrations of inhibitors (1 nM–50 μM) to determine the range of their inhibition. […] Reaction data were fitted to the […] in GraphPad Prism 9 software: Y = bottom + (top – bottom)/(1 + 10^∧((log IC50 – X) × HillSlope)); X is the log of dose or concentration, Y is the response (fluorescence signal), decreasing as X increases, top and bottom are the plateaus in the same units as Y, log IC50 same log units as X, HillSlope is the slope factor or called the Hill slope.

[4] = in DMSO; compound supply and quality parameters, supplier named in Table S4; cited from earlier work

T1 sequence (P07711 114-333 T223A): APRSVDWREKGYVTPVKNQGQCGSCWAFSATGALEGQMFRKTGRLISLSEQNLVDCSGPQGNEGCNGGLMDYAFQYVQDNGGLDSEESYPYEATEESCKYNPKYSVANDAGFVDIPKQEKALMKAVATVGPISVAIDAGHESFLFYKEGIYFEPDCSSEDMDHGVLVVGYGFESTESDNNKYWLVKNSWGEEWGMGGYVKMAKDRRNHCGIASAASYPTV

CC(C)C[C@@H](C=O)NC(=O)[C@H](CC(C)C)NC(=O)[C@H](CC(C)C)NC(=O)OCc1ccccc1 [MG-132, Z-Leu-Leu-Leu-aldehyde] (Cbz-Leu-Leu-Leu-aldehyde)
2:1, Tm average (CatL) (CatL [1]): 79.7 °C
20:1, Tm average (CatL) (CatL [1]): 81.7 °C
ΔTm [K] for CatL, 2:1 ratio (CatL [1]): 16.6 ± 0.1 K
ΔTm (for CatL), 2:1 compound to protein mixing ratio (CatL [1]; pH 5): 16,6 ± 0,1 °C and 16.6 °C
ΔTm (for CatL), 20:1 compound to protein mixing ratio (CatL [1]; pH 5): 18,6 ± 0,1 °C and 18.6 °C
cell toxicity (Vero E6 cells): notably high cell toxicity

CCc1ccccc1NC(=O)CSC(=O)NNC(=O)[C@H](Cc1c[nH]c2ccccc12)NC(=O)OC(C)(C)C [TC-I, tert-Butyl N-[(2S)-1-[2-[2-(2-ethylanilino)-2-oxoethyl]sulfanylcarbonylhydrazinyl]-3-(1H-indol-3-yl)-1-oxopropan-2-yl]carbamate]
IC50 (CatL [2]): 6.9 nM
ΔTm (for CatL), 2:1 compound to protein mixing ratio (CatL [1]; 5 µM CatL, pH 5.0, 2% DMSO, 2:1): 18,4 ± 0,1 °C and 18.4 °C
ΔTm (for CatL), 20:1 compound to protein mixing ratio (CatL [1]; 5 µM CatL, pH 5.0, 2% DMSO, 20:1): 18,8 ± 0,0 °C and 18.8 °C
2:1, Tm average (CatL) (CatL [1]; 2:1 compound to protein): 81.5 °C
20:1, Tm average (CatL) (CatL [1]; 20:1 compound to protein): 81.9 °C
ΔTm [K] for CatL, 2:1 ratio (CatL [1]; Table S1, 2:1 ratio): 18.4 ± 0.1 K
Ki (CatL [3]; CatL, Z-RR-AMC, pH 4.0, 37 °C, read-out: Ki): 71.4 nM
Residual activity (Vi/V0) (CatL [3]; TC-I 0.665 nM): 0.9864 and 1.185
remaining activity at 0.000665 µM (CatL [3]; TC-I 0.665 nM, read-out: Residual activity (Vi/V0)): 100%
Residual activity (Vi/V0) (CatL [3]; TC-I 1.109 nM): 0.9905 and 1.057
remaining activity at 0.001109 µM (CatL [3]; TC-I 1.109 nM, read-out: Residual activity (Vi/V0)): 98.8%
Residual activity (Vi/V0) (CatL [3]; TC-I 1.849 nM): 0.9855 and 1.105
remaining activity at 0.001849 µM (CatL [3]; TC-I 1.849 nM, read-out: Residual activity (Vi/V0)): 103%
Residual activity (Vi/V0) (CatL [3]; TC-I 3.082 nM): 1.069 and 1.158
remaining activity at 0.003082 µM (CatL [3]; TC-I 3.082 nM, read-out: Residual activity (Vi/V0)): 111%
Residual activity (Vi/V0) (CatL [3]; TC-I 5.140 nM): 1.026 and 1.097
remaining activity at 0.00514 µM (CatL [3]; TC-I 5.140 nM, read-out: Residual activity (Vi/V0)): 104%
Residual activity (Vi/V0) (CatL [3]; TC-I 8.568 nM): 1.0471 and 1.09
remaining activity at 0.008568 µM (CatL [3]; TC-I 8.568 nM, read-out: Residual activity (Vi/V0)): 105%
Residual activity (Vi/V0) (CatL [3]; TC-I 14.274 nM): 0.9298 and 0.9778
remaining activity at 0.014274 µM (CatL [3]; TC-I 14.274 nM, read-out: Residual activity (Vi/V0)): 100%
Residual activity (Vi/V0) (CatL [3]; TC-I 23.798 nM): 0.9534 and 0.9214
remaining activity at 0.023798 µM (CatL [3]; TC-I 23.798 nM, read-out: Residual activity (Vi/V0)): 93.3%
Residual activity (Vi/V0) (CatL [3]; TC-I 39.658 nM): 0.9235 and 0.9214
remaining activity at 0.039658 µM (CatL [3]; TC-I 39.658 nM, read-out: Residual activity (Vi/V0)): 74.6%
Residual activity (Vi/V0) (CatL [3]; TC-I 66.096 nM): 0.583 and 0.7717 and 0.8256
Residual activity (Vi/V0) (CatL [3]; TC-I 110.160 nM): 0.683 and 0.704
remaining activity at 0.11016 µM (CatL [3]; TC-I 110.160 nM, read-out: Residual activity (Vi/V0)): 51.2%
Residual activity (Vi/V0) (CatL [3]; TC-I 183.600 nM): 0.3014 and 0.3466 and 0.5578
Solvent (max. solubility) [4]: 50 mg/mL
